B1: recombinant protein of GDNF: recombinant glial cell line-derived neurotrophic factor (protein, UniProt P39905 78-211, looked up)
Glial cell line-derived …: SPDKQMAVLPRRERNRQAAAANPENSRGKGRRGQRGKNRGCVLTAIHLNVTDLGLGYETKEELIFRYCSGSCDAAETTYDKILKNLSRNRRLVSDKVGQACCRPIAFDDDLSFLDDNLVYHILRKHSAKRCGCI

Legend:
diabetic model mice = test: Streptozotocin-induced diabetic model mice, FITC dextran in the eyes as index of vascular permeability; assay type: in vivo, mouse; conditions: atRA 1 mg/kg intraperitoneally
Procedure: Male 5 to 6 week-old C57/BL6 mice were administered with streptozotocin and diabetes was chemically induce in these model mice. To these diabetic model mice, retinoids were administered to evaluate clinical effectiveness. For reference, mice without the diabetic induction were used as control.
Experimental groups: 1. Control (group of non-induction of diabetes) 2. Diabetic group (non-treated group) 3. Diabetic group (atRA-treated group) 4. Diabetic group (Am580-treated group) 5. Diabetic group (Am80-treated group)
The onset of diabetes was confirmed by periodical measurement of glucose in urine, and after all the mice became strongly positive, by measurement of blood glucose. The mice of 4 to 6 week-pathological period with diabetes were used. […] Mice were divided into 4 groups as mentioned above for the treatment. The treatment were performed by administrating atRA (1 mg/kg), Am580 (3.75 mg/kg), and Am80 (4.5 mg/kg) intraperitoneally every other day for 4 days. […] As the index of the permeability, the FITC in the eyes was measured, and the value was standardized with the FITC amount contained in cardiac blood to minimize a potential difference between each amount of dose.
As biological parameters, blood sugar (BS) and urine sugar (US) were evaluated.

GDNF [1] = test: Suppression of GDNF expression by AGE-2 in human astrocyte (RT-PCR, ELISA); assay type: cell-based; conditions: p<0.001; for inhibition of the effect of AGE-2 to suppress the expression of GDNF, protein level: combination with AGE-2, ELISA of cell culture medium; for inhibition of the effect of AGE-2 to suppress the expression of GDNF, mRNA level: combination with AGE-2, RT-PCR
Procedure: Human astrocyte was treated with AGE-2 alone, or combinations of AGE-2 with atRA or Am580, and alterations in the expression of GDNF was evaluated in the same manner as FIG. 6.

GDNF [2] = test: GDNF expression in primary cultured human astrocyte; assay type: cell-based; conditions: for GDNP expression / suppression of the vascular permeability (expression of GDNF divided by expression of VEGF): human astrocyte; for GDNP expression: FIG. 6; for suppression of the vascular permeability (expression of GDNF divided by expression of VEGF): non-treated group as inner control; for expression of GDNF mRNA: preliminary experiment, see FIG. 6
Procedure: (§1) In Examples 1 and 2, U373MG cells, a cell line having the characteristic as astrocyte, was used for convenience of the experiment. […] Therefore, studies were made to evaluate whether or not the enhancement of the expression of GDNF by the retinoid can be observed also in the system using human astrocyte. The astrocyte used in the experiment was a primary cultured cell isolated from the human brain, and was purchased from Cambrex Corporation, USA. This means provides an advantage that observation is achievable under environments closer to those in vivo.
Whilst, the expression of VRGF that is a strong vascular hyperpermeability factor was suppressed in the treated groups. The level of suppression of the vascular permeability in the treated groups is represented by a relative amount of the two factors that define permeability, specifically, a value obtained by dividing a value of the expression of GDNF that is the permeability-suppressing factor by a value of the expression of VEGF that is a hyperpermeability factor. In this case, a value of the expression of each of non-treated groups is used as an inner control, and an amount of the expression of the treated groups is calculated from the concentration on the gel and the area. […] The experimental groups in FIG. 6 are as follows, and the upper figure indicates the photographs of the gel, the lower figure indicates visualized differences of relative amounts obtained by the quantification thereof.

VEGF = VEGF expression in primary cultured human astrocyte; assay type: cell-based; conditions: treated groups, FIG. 6
Procedure: as §1
Whilst, the expression of VRGF that is a strong vascular hyperpermeability factor was suppressed in the treated groups. […] In this case, a value of the expression of each of non-treated groups is used as an inner control, and an amount of the expression of the treated groups is calculated from the concentration on the gel and the area. […] The experimental groups in FIG. 6 are as follows, and the upper figure indicates the photographs of the gel, the lower figure indicates visualized differences of relative amounts obtained by the quantification thereof.

[3] = tested on: MDCK (Madin Darby Canine Kidney) cell; test: Barrier function evaluation with MDCK cells, same parameters as Example 2; assay type: cell-based, dog
Text: The vascular endothelial cell used in Example 2 is the primary culture strain obtained from the bovine brain, which has an advantage of capable of reproducing in vitro conditions more similar to those in a living body. However, unlike those called as cell lines, the strain of the primary cultured cell has limited number of division and a slow division rate, and therefore has an aspect of unsuitability for an experimental system that requires repeated examination. Accordingly, MDCK (Madin Darby Canine Kidney) cell as dog-derived kidney tubule cell (easily available commercially) was used, which cell is optimum for the evaluation of the barrier function and has been experienced of being already used in variety of experimental systems. The effect of synthetic retinoids was evaluated with the same parameter as those in Example 2. The experimental groups in FIG. 5 are as follows:
1. Non-treated group 2. atRA (RARα agonist) 3. Am80 (RARα agonist) 4. Am580 (RARα agonist)
In FIG. 5, the non-treated group (control) is defined as “1”, and relative differences thereto are shown as graphs.

GDNF [4] = test: GDNF expression by atRA treatment in human glioma cells (quantitative RT-PCR, Southern blot); assay type: cell-based; conditions: U373MG cells
Procedure: U373MG cells were cultured in a relatively dense state, and were treated with 10 nM or 100 nM of all-trans retinoic acid (atRA). mRNA was extracted from the cells and subjected to quantitative RT-PCR, and then changes in the gene expression were analyzed and quantified by the Southern blot method. Reverse transcription was performed by using a kit manufactured by Invitrogen. The reagents were prepared according to the manufacturer's instructions, and reacted at 42° C. for 30 minutes. The product was used for PCR after denaturation of reverse transcriptase at 96° C. for 5 minutes. For the PCR reaction, each reagent manufactured by TaKaRa was prepared by mixing according to the manufacturer's instructions, and the following reactions were performed:
1) 94° C., 30 seconds 2) 94° C., 15 seconds 3) 52° C., 15 seconds 4) 72° C., 30 seconds 5) repeat of the reactions from 2) to 4) for 32 times 6) 72° C., 7 minutes
The final reaction product was used for the Southern blot test.

[5] = tested on: vascular endothelial cells obtained from the bovine brain; test: Barrier function of vascular endothelial cells co-cultured with atRA-treated U373MG cells (transwell double chamber); assay type: cell-based; conditions: p<0.05
Procedure: In order to evaluate whether or not the alteration induces physiological reactions, co-cultivation with vascular endothelial was performed. […] As can be understood from FIG. 3, the […] cells (astrocytes) were grown as effector cells in the outer chamber, and treated with atRA and cultured for additional 24 hours. In the inner chamber separately prepared, vascular endothelial cells obtained from the bovine brain were cultured to prepare beforehand for forming a dense single layer cell-sheet.
The outer chamber with U373MG cells and the inner chamber with the vascular endothelial cells were jointed to start the co-culture for evaluation of the barrier function that is a tight-function of the vascular endothelial cells. […] In this experiment, as functional alterations of the vascular endothelial cells by the influence of the astrocyte, the difference in electrical resistance inside and outside of the vascular endothelial cells, and the mobility to the outer chamber of the labeled substance (^14C-labeled) added in the inner chamber were evaluated as indexes as the vascular permeability. The activity of the transferred radioactive substance is indicated as dpm (disintegrations per minutes).

[6] = tested on: vascular endothelial cells; test: Direct treatment of vascular endothelial cells in the absence of astrocyte; assay type: cell-based; conditions: FIG. 8
Text: It is known that the vascular endothelial cells also have retinoid receptors, and accordingly, there remains a possibility that atRA contained in the cell culture medium effected directly on the vascular endothelial cells during the co-culture. However, when a recombinant protein of GDNF was directly effected on the vascular endothelial cells in the absence of astrocyte, the increase in TER and the decrease in the permeability were induced (*p<0.05), whilst these changes were not observed when the cells were treated with atRA (FIG. 8).

[7] = relative to non-treated group, p<0.05
[8] = 14C-labeled, co-culture with atRA-treated U373MG cells

Molecule	effectiveness on vascular hyperpermeability (amount of FITC in the eyes) (diabetic model mice; middle stage diabetic group, Am580 3.75 mg/kg)	inhibition of the effect of AGE-2 to suppress the expression of GDNF, protein level (GDNF [1])	inhibition of the effect of AGE-2 to suppress the expression of GDNF, mRNA level (GDNF [1])	GDNP expression (GDNF [2])	suppression of the vascular permeability (expression of GDNF divided by expression of VEGF) (GDNF [2])	expression of GDNF mRNA (GDNF [2])	expression of VRGF (VEGF)	TER ([3]; relative to non-treated group defined as 1, p<0.05)	intercellular permeability (inulin) [3, 7]	intercellular permeability (mannitol) [3, 7]	urine sugar (US) (diabetic model mice; diabetic mice, compared to the non-treated group)	time at which the increase in GDNF expression reached a plateau level (GDNF [4])	GDNF mRNA level expression (GDNF [4]; 10 nM or 100 nM, after 3 hours and 24 hours)	permeability of inulin (5 kDa) [5, 8]	permeability of mannitol (182 Da) [5, 8]	TER (transepithelial electrical resistance), barrier function of the vascular endothelial cells ([5]; co-culture with U373MG cells treated with atRA)	TER [6]	permeability [6]
CC1(C)CCC(C)(C)c2cc(C(=O)Nc3ccc(C(=O)O)cc3)ccc21 [Am580, 4-[(5,6,7,8-tetrahydro-5,5,8,8-tetramethyl-2-naphthalenyl)carboxamide]benzoic acid]	higher effectiveness than atRA	strongly inhibited	strongly inhibited	significantly increases	about three-fold	induced the expression of GDNF mRNA in a dose-dependent and time-dependent manner	suppressed	more effective than atRA, and much effective than Am80	most effectively suppressed	most effectively suppressed	–	–	–	–	–	–	–	–
CC1=C(/C=C/C(C)=C/C=C/C(C)=C/C(=O)O)C(C)(C)CCC1 [atRA, all-trans retinoic acid]	–	strongly inhibited	strongly inhibited	significantly increases	about three-fold	induced the expression of GDNF mRNA in a dose-dependent and time-dependent manner	suppressed	–	–	–	Significantly lower	about 3 hours	increased in relation to the elevated concentration	significantly suppressed	significantly suppressed	enhanced	not observed	not observed
B1	–	–	–	–	–	–	–	–	–	–	–	–	–	–	–	–	increase	decrease
